{"source": "patent US7002010B2", "about": "“Process for the preparation of morpholinones as light stabilizers” (Ciba Specialty Chemicals Corporation, priority 2000, dated 2006)"}
{"molecule": "CC(N)(CO)COC(C)(C)C", "note": "(stereo not shown) [Compound 301, 2-amino-3-tert-butoxy-2-methyl-propan-1-ol]", "values": [{"measurement": "melting point", "value": "30 to 35", "unit": "°C"}]}
